Assay results taken from patent publication US20050203172A1, “Novel compounds” (priority 2002, published 2005).
Where a name gives a salt, the structure may show the parent alone.

System: human form of induced nitric oxide synthase in DLD-1 cells
Assay: Screen 3: nitrite accumulation (Griess) in cytokine-induced DLD-1 cells
Type: cell-based
Details: DLD-1 cells induced with gamma-IFN, TNF-alpha, IL-6, IL-1-beta, 5 hours with compound, read-out: IC50 (inhibition of nitrite accumulation)
Protocol: The human colorectal carcinoma cell line, DLD-1 (obtained from the European Collection of Animal Cell Culture—cell line number 90102540) was routinely grown in RPMI 1640 supplemented with 10% (v/v) foetal bovine serum, and 2 mM L-glutamine, at 37° C. in 5% CO2. Nitric oxide synthase was induced in cells by addition of medium containing human recombinant gamma-IFN (1000 units/ml), TNF-alpha (200 U/ml), IL-6 (200 U/ml) and IL-1-beta (250 U/ml). After incubation for 18 hours at 37° C., the medium was removed and the cells washed with warm phosphate buffered saline. Cells were incubated for a further 5 hours at 37° C./5% CO2 in RPMI 1640 containing 100 μM L-arginine and 100 μM verapamil-HCl in the presence and absence of test compounds. Nitrite accumulation was determined by mixing an equal volume of culture media with Griess reagent (10 mg/ml sulphanilamide, 1 mg N-(1-naphthyl)ethylenediamine in 1 ml 2.5% (v/v) phosphoric acid). Inhibition in the presence of compounds was calculated relative to the nitrite levels produced by untreated cells. IC50 values were estimated from a semi-log plot of % inhibition versus concentration of compound.

| SMILES | IC50 |
| --- | --- |
| Cc1cc(S[C@H](C[C@H](N)CO)c2ccccc2)c(C#N)s1 [Example 2, 3-[[(1R,3S)-3-Amino-4-hydroxy-1-phenylbutyl]thio]-5-methyl-2-thiophenecarbonitrile Oxalate] | < 100 µM |
| N#Cc1sccc1S[C@H](C[C@H](N)CO)c1ccccc1 [Example 1, 3-[[(1R,3S)-3-Amino-4-hydroxy-1-phenylbutyl]thio]-2-thiophenecarbonitrile oxalate] | < 100 µM |
